In PubChem BioAssay AID1360 (Sanford-Burnham Center for Chemical Genomics, 2008):
Activity calls are given as the source filed them.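 Rule for the calls: active = no phosphorylated c-Jun band on immunoblot of thapsigargin-stressed cells, like the unstressed control; inactive = a phosphorylated c-Jun band visible, like the stressed control.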

Tested on: CSM14.1 cells, phospho-c-Jun Western blot, thapsigargin
Test: phospho-c-Jun suppression under ER stress – CSM14.1 cells, Western blot, mechanism study for ER stress cell death inhibitors (AID 1360)

CCOc1cc(C2Nc3ccccc3NC3=C2C(=O)CC(c2ccc(OC)cc2)C3)cc(Cl)c1O (stereo unspecified)
outcome: active

COc1ccc(C2CC(=O)C3=C(C2)Nc2ccccc2NC3c2cccc(Br)c2)cc1OC (stereo unspecified)
outcome: active

CCOc1cccc(C2Nc3ccccc3NC3=C2C(=O)CC(c2ccc(OC)cc2)C3)c1 (stereo unspecified)
outcome: active

CC1(C)CC(=O)C2=C(C1)Nc1ccccc1NC2c1ccc(-c2ccccc2)cc1 (stereo unspecified)
outcome: active

COc1ccc(C2CC(=O)C3=C(C2)Nc2ccccc2NC3c2cc(C)ccc2C)cc1 (stereo unspecified)
outcome: active

COc1ccc(C2CC(=O)C3=C(C2)Nc2ccccc2NC3c2cccc(Oc3ccccc3)c2)cc1OC (stereo unspecified)
outcome: active

CCCOc1ccc(C2Nc3ccccc3NC3=C2C(=O)CC(c2ccc(OC)c(OC)c2)C3)cc1 (stereo unspecified)
outcome: active

O=C1CC(c2ccccc2)CC2=C1C(c1c(F)cccc1Cl)Nc1ccccc1N2 (stereo unspecified)
outcome: active

CSc1ccc(C2Nc3ccccc3NC3=C2C(=O)CC(c2ccccc2)C3)cc1 (stereo unspecified)
outcome: active

COc1ccc(C2CC(=O)C3=C(C2)Nc2ccccc2NC3c2ccccc2C(F)(F)F)cc1OC (stereo unspecified)
outcome: active

COc1ccc(C2CC(=O)C3=C(C2)Nc2ccccc2NC3c2cccc(C(F)(F)F)c2)cc1OC (stereo unspecified)
outcome: active
